Measurements: US20230112800A1 (priority 2021, published 2023)
Like-named read-outs stand apart in the source and are kept apart here.

What was measured:
[1] = rats, niclosamide dose of 10 mg/kg by oral gavage, n = 5
[2] = CD-1 mice, 500 mg/kg suspended in 0.5% Methocel A4M
[3] = system: COVID-19; conditions: in-vitro isolate COVID-19, Vero E6 cells; cited from earlier work
[4] = system: SARS-CoV; conditions: Vero cells infected by SARS-CoV (2002 pandemic); cited from earlier work

## O=C(Nc1ccc([N+](=O)[O-])cc1Cl)c1cc(Cl)ccc1O
[1]
  AUCInf: 188 (84) h*ng/mL
  AUC_%Extrap_obs: 8.4 (7.0) %
  AUClast: 168 (64) h*ng/mL
  AUClast/D: 16.8 (6.4) h*mg/mL
  Cmax: 48.3 (20.6) ng/mL
  MRTInf_obs: 3.56 (0.70) h
  T1/2: 1.00 (0.30) h
  Tmax: 3.60 (0.89) h

## O=C(Nc1ccc([N+](=O)[O-])cc1Cl)c1cc(Cl)ccc1O [Crystalline Nic]
[2]
  AUC0-last: 1.4546 µg·h/mL
  Cmax: 0.6617 µg/mL
  Tmax: 30 min

## CCN(CC)CCCC(C)Nc1ccnc2cc(Cl)ccc12 (stereo not shown) [chloroquine]
[3]
  IC50: 1.13 µM
[4]
  IC50: 4.4 µM
